Test results taken from ChEMBL document CHEMBL4680141, “Novel benzimidazole-acrylonitrile hybrids and their derivatives: Design, synthesis and antimycobacterial activity” (2020).
In brackets after ≈: the same amount, converted by molar mass.

Experiments:
Format in all cases: functional
[1] = test system: Mycobacterium tuberculosis; assay: Antimycobacterial activity against Mycobacterium tuberculosis H37Rv assessed as inhibition of bacterial growth incubated for 7 days by MABA assay; details: 168 h, time 7 day
[2] = test system: Mycobacterium tuberculosis; assay: Antimycobacterial activity against dormant form of Mycobacterium tuberculosis H37Rv assessed as log fold reduction in bacterial count at 10 ug/ml under nutrient starvation condition after 7 days by MPN assay; details: dose 10 µg/ml; time 7 day
[3] = test system: Mycobacterium tuberculosis; assay: Antimycobacterial activity against Mycobacterium tuberculosis H37Rv assessed as inhibition of bacterial growth by MABA assay

Compound: CC(=O)N1CCN(c2ccc(/C=C(\C#N)c3nc4ccccc4[nH]3)cc2)CC1
- MIC [1]: 12.5 mg/L (≈ 33.7 µM)

Compound: CN1CCN(c2ccc(/C=C(\C#N)c3nc4ccccc4[nH]3)cc2)CC1
- MIC [1]: > 25 mg/L

Compound: NNC(=O)c1ccncc1 [ISONIAZID]
- MIC [1]: 0.05 mg/L (≈ 0.365 µM)
- FC [2]: 1.5

Compound: COc1ccc(N2CCN(c3ccc(CC(C#N)c4nc5ccccc5[nH]4)cc3)CC2)cc1 (stereo not given)
- MIC [1]: > 25 mg/L

Compound: N#C/C(=C\c1ccc(N2CCN(C3CCCCC3)CC2)cc1)c1nc2ccccc2[nH]1
- MIC [1]: > 25 mg/L

Compound: N#C/C(=C\c1ccc(N2CCN(c3cccc(Cl)c3)CC2)cc1)c1nc2ccccc2[nH]1
- MIC [1]: > 25 mg/L

Compound: COc1ccc(N2CCN(c3ccc(/C=C(\C#N)c4nc5ccccc5[nH]4)cc3)CC2)cc1
- MIC [1]: 6.25 mg/L (≈ 14.4 µM)

Compound: N#C/C(=C\c1ccc(N2CCN(c3ccc(Cl)cc3)CC2)cc1)c1nc2ccccc2[nH]1
- MIC [1]: > 25 mg/L

Compound: COc1cccc(N2CCN(c3ccc(/C=C(\C#N)c4nc5ccccc5[nH]4)cc3)CC2)c1
- MIC [1]: > 25 mg/L

Compound: Cc1ccc(N2CCN(c3ccc(CC(C#N)c4nc5ccccc5[nH]4)cc3)CC2)cc1 (stereo not given)
- MIC [1]: > 25 mg/L

Compound: CC[C@@H](CO)NCCN[C@@H](CC)CO [ETHAMBUTOL]
- MIC [1]: 1.56 mg/L (≈ 7.64 µM)

Compound: Cc1ccc(N2CCN(c3ccc(/C=C(\C#N)c4nc5ccccc5[nH]4)cc3)CC2)cc1
- MIC [1]: 0.78 mg/L (≈ 1.86 µM)
- FC [2]: 2.8

Compound: N#C/C(=C\c1ccc(N2CCN(c3ccc(Br)cc3)CC2)cc1)c1nc2ccccc2[nH]1
- MIC [1]: > 25 mg/L

Compound: COc1c(N2C[C@@H]3CCCN[C@@H]3C2)c(F)cc2c(=O)c(C(=O)O)cn(C3CC3)c12 [MOXIFLOXACIN]
- FC [2]: 1.5

Compound: N#C/C(=C\c1ccc(N2CCN(Cc3ccc(F)cc3)CC2)cc1)c1nc2ccccc2[nH]1
- MIC [1]: 25 mg/L (≈ 57.1 µM)

Compound: N#CC(Cc1ccc(N2CCN(c3ccccc3)CC2)cc1)c1nc2ccccc2[nH]1 (stereo not given)
- MIC [1]: > 25 mg/L

Compound: N#C/C(=C\c1ccccc1)n1nnc2ccccc21
- MIC [3]: 6.25 mg/L (≈ 25.4 µM)

Compound: N#C/C(=C\c1ccc(N2CCN(c3ccccc3)CC2)cc1)c1nc2ccccc2[nH]1
- MIC [1]: 6.25 mg/L (≈ 15.4 µM)

Compound: O=C(O)c1cn(C2CC2)c2cc(N3CCNCC3)c(F)cc2c1=O [CIPROFLOXACIN]
- FC [2]: 1.5

Compound: CO[C@H]1/C=C/O[C@@]2(C)Oc3c(C)c(O)c4c(O)c(c(/C=N/N5CCN(C)CC5)c(O)c4c3C2=O)NC(=O)/C(C)=C\C=C\[C@H](C)[C@H](O)[C@@H](C)[C@@H](O)[C@@H](C)[C@H](OC(C)=O)[C@@H]1C [RIFAMPIN]
- MIC [1]: 0.1 mg/L (≈ 0.122 µM)
- FC [2]: 1.5

Compound: N#C/C(=C\c1ccc(N2CCN(c3ccc(F)cc3)CC2)cc1)c1nc2ccccc2[nH]1
- MIC [1]: > 25 mg/L

Compound: N#C/C(=C\c1ccc(N2CCN(Cc3ccccc3)CC2)cc1)c1nc2ccccc2[nH]1
- MIC [1]: > 25 mg/L
